Source: patent US11230538B2, “Herbicides” (SYNGENTA PARTICIPATIONS AG, priority 2016, dated 2022)

Columns and labels:
Type in all cases: in vivo
[1] = tested on: Alopecurus myosuroides (ALOMY); experiment: B1 Pre-emergence herbicidal activity; parameters: key: 5=total damage to plant; 0=no damage to plant; conditions: pre-emergence application, rate 1000 g/ha, evaluated after 13 days
In short: (§1)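 Damage was rated visually on a 0–5 scale (0 no damage, 5 total damage) 13 days after treatment. Soil-sown seeds had been sprayed one day after sowing with an aqueous acetone/water (50:50) solution containing 0.5% Tween 20, then kept in a glasshouse at 24/16 °C, 14 h light, 65% humidity.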

[2] = tested on: Avena fatua (AVEFA); experiment: B1 Pre-emergence herbicidal activity; parameters: key: 5=total damage to plant; 0=no damage to plant; conditions: pre-emergence application, rate 1000 g/ha, evaluated after 13 days
In short: as §1

[3] = tested on: Triticum aestivium (TRZAW); experiment: B1 Pre-emergence herbicidal activity; parameters: key: 5=total damage to plant; 0=no damage to plant; conditions: pre-emergence application, rate 1000 g/ha, evaluated after 13 days
In short: as §1

[4] = tested on: Echinochloa crus-galli (ECHCG); experiment: B1 Pre-emergence herbicidal activity; parameters: key to Pre-emergence herbicidal activity, ECHCG (damage score 0-5): 5=total damage to plant; 0=no damage to plant; conditions: pre-emergence application, rate 1000 g/ha, evaluated after 13 days
In short: as §1

[5] = tested on: Lolium perenne (LOLPE); experiment: B1 Pre-emergence herbicidal activity; conditions: pre-emergence application, rate 1000 g/ha, evaluated after 13 days
In short: as §1

[6] = tested on: Setaria fabenr (SETFA); experiment: B1 Pre-emergence herbicidal activity; parameters: key to Pre-emergence herbicidal activity, SETFA (damage score 0-5): 5=total damage to plant; 0=no damage to plant; conditions: pre-emergence application, rate 1000 g/ha, evaluated after 13 days
In short: as §1

[7] = tested on: Avena fatua (AVEFA); experiment: B2 Post-emergence herbicidal activity; conditions: post-emergence application, rate 1000 g/ha, evaluated after 13 days
Method: (§2) Seeds of a variety of test species were sown in standard soil in pots: Triticum aestivium (TRZAW), Avena fatua (AVEFA), Alopecurus myosuroides (ALOMY), Echinochloa crus-galli (ECHCG), Lolium perenne (LOLPE), Zea Mays (ZEAMX), Abutilon theophrasti (ABUTH), Amaranthus retroflexus (AMARE) and Setaria fabenri (SETFA). After 8 days cultivation (post-emergence) under controlled conditions in a glasshouse (at 24/16° C., day/night; 14 hours light; 65% humidity), the plants were sprayed with an aqueous spray solution derived from the formulation of the technical active ingredient in acetone I water (50:50) solution containing 0.5% Tween 20 (polyoxyethelyene sorbitan monolaurate, CAS RN 9005-64-5). The test plants were then grown in a glasshouse under controlled conditions (at 24/16° C., day/night; 14 hours light; 65% humidity) and watered twice daily. After 13 days, the test was evaluated (5=total damage to plant; 0=no damage to plant).

[8] = tested on: Echinochloa crus-galli (ECHCG); experiment: B2 Post-emergence herbicidal activity; parameters: key to Post-emergence herbicidal activity, ECHCG (damage score 0-5): 5=total damage to plant; 0=no damage to plant; conditions: post-emergence application, rate 1000 g/ha, evaluated after 13 days
In short: (§3)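 Visual damage score (0 = none, 5 = total) taken 13 days after treatment. Seedlings had been cultivated 8 days in pots of standard soil before being sprayed with an aqueous solution of compound in acetone/water (50:50) containing 0.5% Tween 20.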

[9] = tested on: Lolium perenne (LOLPE); experiment: B2 Post-emergence herbicidal activity; conditions: post-emergence application, rate 1000 g/ha, evaluated after 13 days
Method: as §2

[10] = tested on: Alopecurus myosuroides (ALOMY); experiment: B2 Post-emergence herbicidal activity; parameters: key: 5=total damage to plant; 0=no damage to plant; conditions: post-emergence application, rate 1000 g/ha, evaluated after 13 days
In short: as §3

[11] = tested on: Setaria fabenri (SETFA); experiment: B2 Post-emergence herbicidal activity; parameters: key: 5=total damage to plant; 0=no damage to plant; conditions: post-emergence application, rate 1000 g/ha, evaluated after 13 days
In short: as §3

[12] = tested on: Triticum aestivium (TRZAW); experiment: B2 Post-emergence herbicidal activity; parameters: key: 5=total damage to plant; 0=no damage to plant; conditions: post-emergence application, rate 1000 g/ha, evaluated after 13 days
In short: as §3

Compound | Pre-emergence herbicidal activity, ALOMY (damage score 0-5) [1] | Pre-emergence herbicidal activity, AVEFA (damage score 0-5) [2] | Pre-emergence herbicidal activity, TRAZW (damage score 0-5) [3] | Pre-emergence herbicidal activity, ECHCG (damage score 0-5) [4] | Pre-emergence herbicidal activity, LOLPE (damage score 0-5) [5] | Pre-emergence herbicidal activity, SETFA (damage score 0-5) [6] | Post-emergence herbicidal activity, AVEFA (damage score 0-5) [7] | Post-emergence herbicidal activity, ECHCG (damage score 0-5) [8] | Post-emergence herbicidal activity, LOLPE (damage score 0-5) [9] | Post-emergence herbicidal activity, ALOMY (damage score 0-5) [10] | Post-emergence herbicidal activity, SETFA (damage score 0-5) [11] | Post-emergence herbicidal activity, TRAZW (damage score 0-5) [12]
CC(=O)N(C(C)=O)c1ccc(-c2cncnc2)nc1C(F)(F)F [Compound C6] | 1 | 4 | 1 | 4 | 2 | 4 | 4 | 4 | 4 | 1 | 5 | 1
CC(=O)Nc1ccc(-c2cncnc2)nc1C(F)(F)F [Compound C7] | 0 | 3 | 0 | 4 | 1 | 4 | 4 | 4 | 3 | 1 | 5 | 1
CC(C)C(=O)Nc1ccc(-c2cncnc2)nc1C(F)(F)F [Compound C8] | 0 | 3 | 0 | 4 | 2 | 5 | 4 | 4 | 2 | 3 | 5 | 2
CC(C)C(=O)Nc1ccc(-c2cncc(C#N)c2)nc1C(F)(F)F [Compound C11] | 0 | 0 | 0 | 1 | 1 | 4 | 2 | 3 | 1 | 1 | 5 | 0
CC(C)C(=O)Nc1ccc(-c2cncc(Cl)c2)nc1C(F)(F)F [Compound C12] | 0 | 0 | 0 | 2 | 1 | 4 | 3 | 5 | 2 | 1 | 5 | 0
CCC(=O)Nc1ccc(-c2cncc(F)c2)nc1C(F)(F)F [Compound C13] | 1 | 2 | 0 | 4 | 3 | 5 | 4 | 5 | 4 | 1 | 5 | 0
O=C(Nc1ccc(-c2cncc(F)c2)nc1C(F)(F)F)c1ccccc1 [Compound C14] | 2 | 1 | 0 | 5 | 2 | 4 | 4 | 5 | 4 | 1 | 5 | 1
CCC(=O)N(C)c1ccc(-c2cncc(F)c2)nc1C(F)(F)F [Compound C15, N-[6-(5-fluoro-3-pyridyl)-2-(trifluoromethyl)-3-pyridyl]-N-methyl-propanamide] | 0 | 0 | 0 | 5 | 1 | 5 | 3 | 5 | 3 | 1 | 5 | 1
C=CCN(C(=O)C(C)C)c1ccc(-c2cncc(F)c2)nc1C(F)(F)F [Compound C16] | 0 | 1 | 0 | 4 | 2 | 5 | 4 | 5 | 3 | 1 | 5 | 1
C/C=C/C(=O)Nc1ccc(-c2cncc(F)c2)nc1C(F)(F)F [Compound C23] | 1 | 3 | 1 | 5 | 1 | 5 | 3 | 5 | 3 | 0 | 5 | 0
COCCC(=O)Nc1ccc(-c2cncc(F)c2)nc1C(F)(F)F [Compound C24] | 1 | 4 | 0 | 4 | 1 | 5 | 4 | 5 | 4 | 1 | 5 | 1
